Results on 29 compounds are retold here after US20020107269A1, “Benzoxazole LPAAT-B inhibitors and uses thereof” (CELL THERAPEUTICS, INC., priority 2000, published 2002).

pIC50: −log10 of the molar value.

This test concerns the target T1, LPAAT-β (Homo sapiens, UniProt O15120).
T1 construct: the full-length human LPAAT-β cDNA was amplified by PCR; poly-histidine tag (N); made in house; host or cells: Sf9 insect cells (baculovirus, pFastBac HTc); membrane fraction used
T1 sequence (O15120 24-278): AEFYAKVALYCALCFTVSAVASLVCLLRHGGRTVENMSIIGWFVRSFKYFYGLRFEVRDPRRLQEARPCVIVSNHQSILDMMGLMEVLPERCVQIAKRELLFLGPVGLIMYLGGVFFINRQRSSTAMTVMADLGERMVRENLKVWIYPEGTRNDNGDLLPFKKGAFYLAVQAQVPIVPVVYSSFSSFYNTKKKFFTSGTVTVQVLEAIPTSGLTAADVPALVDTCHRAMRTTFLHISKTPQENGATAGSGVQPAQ
As to the kind of experiment: LPAAT-β colorimetric assay (DTNB detection of released CoA). It counts as biochemical. The following applies: Sf9 cell membrane overexpressing LPAAT-β; 18:1-CoA and sn-1-18:1 lysoPA; absorbance at 405 nm; read-out: LPAATβ Colorimetric Assay IC50. From the text:
For the construction of Baculovirus expression vectors, the full-length human LPAAT-β cDNA was amplified by PCR from the DNA template pCE9.LPAAT-β (West et al., DNA Cell Biol. 16:691-701 (1997)) using the primers 5′-TGATATCCGAAGAAGATCTTATGGAGCTGTGGCCGTGTC-3′ (olpb1F) and 5′-CAGGCTCTAG ACTACTGGGC CGGCTGCAC-3′ (olpb1R). The ˜870 bp fragment generated was reamplified by PCR using the primers 5′ CCTACGTCG ACATGGAACAAAAATTGATATCCGAAGAAGATC-3′ (olpb2F) and 5′-CAGGCTCTAG ACTACTGGGC CGGCTGCAC-3′ (olpb1R). The ˜890 bp fragment generated was then cleaved with Sal I and Xba I for insertion into pFastBac™ HTc vector (Life Technologies, Gaithersberg, Md.) between the Sal I and Xba I sites for the generation of the plasmid pFB.LPAAT-β. This plasmid was then transformed into E. coli DH10Bac™ (Life Technologies, Gaithersberg, Md.) for the generation of recombinant Bacmid DNA for transfection into HighFive (Invitrogen, San Diego, Calif.) or SF9 insect cells for the production of recombinant Baculovirus stocks using the protocol described in the Bac-to-Bac® Baculovirus Expression System (Life Technologies, Gaithersberg, Md.), a eukaryotic expression system for generating recombinant baculovirus through site-specific transposition in E. coli. Viral stocks harvested from the transfected cells can then be used to infect fresh insect cells for the subsequent expression of LPAAT-β fusion protein with a poly-histidine tag and a myc-epitope near its N-terminus. The membrane fraction from these Sf9 cells would be the source of LPAAT enzyme.
For the preparation of membranes From Sf9 Cells, all steps are performed on ice or at 4° C. Sf9 cell pellets ([…]) were thawed and resuspended in 1-2 ml of buffer A (20 mM Hepes, pH 7.5, 1 mM DTT, 1 mM EDTA, 20% w/v glycerol, 1 mM Benzamidine, 1 μg/ml soybean trypsin inhibitor (SBTI), 1 μg/ml pepstatin A) w/o DTT but with 1 mM Pefabloc. The cells were lysed by sonication using a Branson Sonifier at output=2, duty cycle=2, 10 pulses each at 10 s. with the tip of small sonicator probe submerged but not touching the walls. DTT was then added to 1 mM from a 1M stock. The samples were centrifuged at 1500 rpm for 5 min. The low speed supernatant was saved and centrifuged (TLA 100.3 rotor, polycarbonate tubes, 2 ml/tube or 1.5 ml/tube minimum) at 100000×g for 1 hr. The high speed pellet was resuspend in Buffer A with a probe sonicator (10 pulses @ output #2 and duty cycle 20%) as a source of LPAAT enzyme.
LPAAT-β catalyzes the transfer of an acyl group from a donor such as acyl-CoA to LPA. The transfer of the acyl group from acyl-CoA to LPA leads to the release of free CoA, which can be reacted with the thiol reagent, 5,5′-dithiobis(2-nitrobenzoic acid) (DTNB). The reaction between DTNB and the free sulfhydryl group from CoA generates a yellow-colored product, 3-carboxylato-4-nitrothiophenolate (CNP), that absorbs at 413 nm. LPAAT-β derived from Sf9 cell membrane overexpressing LPAAT-β were resuspended in HEPES saline buffer (20 mM HEPES pH 7.5, 150 mM NaCl), 1 mg/ml BSA and 72 μl aliquots were distributed into 96-well microtiter plates. 8 μl of compound of interest at 200 μM dissolved in 100% DMSO was added into each well. 20 μl of 1 mM 18:1-CoA and 1 mM sn-1-18:1 lysoPA was then added to each well to initiate the reaction and allowed to run at room temperature for 25 min. 100 μl of 1 mM DTNB in 100% ethanol was then added to each well to quench the reaction and for color development. The absorbance at 405 nm, measured using a spectrophotometer plate reader, is proportional to the activity of LPAAT-β in the sample. This calorimetric assay was used for the high throughput screening of LPAAT inhibitors. […] Compounds that gave a reading of less than 0.06 arbitrary units (indicated by arrow on right margin) were selected for further study.
As usually defined, the pIC50 is the IC50 on a negative log10 scale, so that one unit is a factor of ten. For `C#CCOC(=O)Nc1ccc(Cl)c(-c2nc3c(C)cccc3o2)c1` [CT-32079, (4-Chloro-3-(4-methyl-benzooxazol-2-yl)-phenyl)-carbamic acid Prop-2-ynyl Ester], the pIC50 is 6.80.

As for `C#CCOC(=O)Nc1ccc(Cl)c(-c2nc3ccccc3o2)c1` [CT-32154, (3-Benzooxazol-2-yl-4-chloro-phenyl)-carbamic Acid Prop-2-ynyl Ester], the pIC50 was 7.30. With `CCC(=O)Nc1ccc(Cl)c(-c2nc3ccccc3o2)c1` [CT-32008, N-(3-Benzooxazol-2-yl-4-chloro-phenyl)-propionamide] the figure was 6.05; with `CCC(=O)Nc1ccc(Cl)c(-c2nc3cc(Cl)ccc3o2)c1` [CT-32160, N-(4-Chloro-3-(5-chloro-benzooxazol-2-yl)-phenyl)-propionamide], 6.46; with `COC(=O)Nc1ccc(Cl)c(-c2nc3cc(C)ccc3n2C)c1` [CT-32061, (4-Chloro-3-(1,5-dimethyl-1H-benzoimidazol-2-yl)-phenyl)-carbamic Acid Methyl Ester], 4.97.

Regarding `COC(=O)Nc1ccc(Cl)c(-c2nc3ccccc3o2)c1` [CT-32009, (3-Benzooxazol-2-yl-4-chloro-phenyl)-carbamic Acid Methyl Ester], the negative logarithm of the IC50 (pIC50) was 6.30. The result for `[N-]=[N+]=NCC(=O)Nc1ccc(Cl)c(-c2nc3cc(Cl)ccc3o2)c1` [CT-32289, 2-Azido-N-[4-chloro-3-(5-chloro-benzooxazol-2-yl)-phenyl]-acetamide] reads 6.76; that for `C#CCOC(=O)Nc1ccc(Cl)c(-c2nc3cc(Cl)ccc3n2C)c1` [CT-32243, [4-Chloro-3-(5-chloro-1-methyl-1H-benzoimidazol-2-yl)-phenyl]-carbamic Acid Prop-2-ynyl Ester], 7.22.

Turning to `C#CCOC(=O)Nc1ccc(Cl)c(-c2nc3cc(Cl)ccc3s2)c1` [CT-32192, (4-Chloro-3-(5-chloro-benzothiazol-2-yl)-phenyl)-carbamic Acid Prop-2-ynyl ester], the pIC50 was 8.22. The result for `C#CCOC(=O)Nc1ccc(Cl)c(-c2nc3cc(C(F)(F)F)ccc3s2)c1` [CT-32143, (4-Chloro-3-(5-trifluoromethyl-benzothiazol-2-yl)-phenyl)-carbamic Acid Prop-2-ynyl Ester] reads 7.82; that for `N#CCC(=O)Nc1ccc(Cl)c(-c2nc3cc(Cl)ccc3o2)c1` [CT-32214, N-[4-Chloro-3-(5-chloro-benzooxazol-2-yl)-phenyl]-2-cyano-acetamide], 6.57. With `COC(=O)Nc1ccc(C)c(-c2nc3cc(C)ccc3o2)c1` [CT-32036, (4-Methyl-3-(5-methyl-benzooxazol-2-yl)-phenyl)-carbamic Acid Methyl Ester] the figure was 5.82; with `C#CCOC(=O)Nc1ccc(C)c(-c2nc3cc(Cl)ccc3s2)c1` [CT-32268, [3-(5-chloro-benzothiazol-2-yl)-4-methyl-phenyl]-carbamic Acid Prop-2-ynyl Ester], 6.82. With `C#CCOC(=O)Nc1ccc(Cl)c(-c2nc3cc(Cl)ccc3o2)c1` [CT-32161, (4-Chloro-3-(5-chloro-benzooxazol-2-yl)-phenyl)-carbamic Acid Prop-2-ynyl Ester] the figure was 7.46.

For `CC#CCOC(=O)Nc1ccc(Cl)c(-c2nc3cc(Cl)ccc3s2)c1` [CT-32262, (4-Chloro-3-(5-chloro-benzothiazol-2-yl)-phenyl)-carbamic Acid But-2-ynyl Ester], the pIC50 is 7.60. The result for `C#CCOC(=O)Nc1ccc(Cl)c(-c2nc3cc(C)ccc3o2)c1` [CT-32037, (4-Chloro-3-(5-methyl-benzooxazol-2-yl)-phenyl)-carbamic Acid Prop-2-ynyl Ester] reads 6.72; that for `C#CCOC(=O)Nc1ccc(Cl)c(-c2nc3ncccc3o2)c1` [CT-32259, (4-Chloro-3-oxazolo[4,5,b]pyridin-2-yl-phenyl)-carbamic Acid Prop-2-ynyl Ester], 6.10; that for `COC(=O)Nc1ccc(Cl)c(-c2nc3cc(Cl)ccc3o2)c1` [CT-32053, (4-Chloro-3-(5-chloro-benzooxazol-2-yl)-phenyl)-carbamic Acid Methyl Ester], 6.52. Turning to `CCC(=O)Nc1ccc(Cl)c(-c2nc3cc(C(F)(F)F)ccc3s2)c1` [CT-32142, N-(4-Chloro-3-(5-trifluoromethyl-benzothiazol-2-yl)-phenyl)-propionamide], the pIC50 was 6.66. The result for `C#CCCOC(=O)Nc1ccc(Cl)c(-c2nc3cc(Cl)ccc3s2)c1` [CT-32277, [4-Chloro-3-(5-chloro-benzothiazol-2-yl)-phenyl]-carbamic Acid But-3-ynyl Ester] reads 7.26; that for `C#CCOC(=O)Nc1ccc(C)c(-c2nc3cc(C(F)(F)F)ccc3s2)c1` [CT-32203, 4-Methyl-3-(5-trifluoromethyl-benzothiazol-2-yl)-phenyl-carbamic Acid Prop-2-ynyl Ester], 7.40; that for `N#CCC(=O)Nc1ccc(Cl)c(-c2nc3cccnc3s2)c1` [CT-32315, N-(4Chloro-3-thiazolo[5,4,b]pyridin-2-yl-phenyl)-2-cyano-acetamide], 6.96. Regarding `C#CCCC(=O)Nc1ccc(Cl)c(-c2nc3cc(Cl)ccc3s2)c1` [CT-32278, Pent-4-ynoic acid [4-chloro-3-(5-chloro-benzothiazol-2-yl)-phenyl]-amide], the pIC50 was 7.40. Consider `CNC(=O)Nc1ccc(Cl)c(-c2nc3cc(C)ccc3o2)c1` [CT-32021, 1-(4-Chloro-3-(5-methyl-benzooxazol-2-yl)-phenyl)-3-methyl-urea], for which the pIC50 is 5.40.

On to `CCC(=O)Nc1ccc(F)c(-c2nc3cc(C)ccc3o2)c1` [CT-32011, N-(4-Fluoro-3-(5-methyl-benzooxazol-2-yl)-phenyl)-propionamide], for which the pIC50 was 4.81. Turning to `CCC(=O)N(C)c1ccc(Cl)c(-c2nc3cc(C)ccc3o2)c1` [CT-32019, N-(4-Chloro-3-(5-methyl-benzooxazol-2-yl)-phenyl)-N-methyl-propionamide], the pIC50 was 4.92. With `COC(=O)Nc1ccc(Cl)c(-c2nc3cc(C(F)(F)F)ccc3s2)c1` [CT-32073, (4-Chloro-3-(5-trifluoromethyl-benzothiazol-2-yl)-phenyl)-carbamic Acid Methyl Ester] the figure was 6.70; with `N#CCC(=O)Nc1ccc(Cl)c(-c2nc3cc(Cl)ccc3s2)c1` [CT-32242, N-(4-Chloro-3-(5-chloro-benzothiazol-2-yl)-phenyl)-2-cyano-acetamide], 7.82. On to `C#CCOC(=O)Nc1ccc(C)c(-c2nc3cccnc3o2)c1` [CT-32290, (4-Methyl-3-oxazolo[5,4,b]pyridin-2-yl-phenyl)-carbamic Acid Prop-2-ynyl Ester], for which the pIC50 was 5.92.
